Patent US10858367B2, “Compounds” (GLAXOSMITHKLINE INTELLECTUAL PROPERTY DEVELOPMENT LIMITED, priority 2017, dated 2020)

Experiments:
[1] = target: T1, full length G2019 human LRRK2 (Homo sapiens, UniProt Q5S007, R50H); assay: Full length G2019 human LRRK2 Inhibition Mass Spectrometry assay; type: biochemical; conditions: 25 nM LRRK2 enzyme, 25 uM LRRKtide, 2 mM ATP; RapidFire mass spectrometry; read-out: pIC50 in the full length G2019 human LRRK2 Inhibition Mass Spectrometry assay (converted)
T1 construct: made in house; host or cells: HEK293 6E cells transduced with BacMam virus (virus generated in Sf9 cells)
Source text: a. Full Length G2019 Human LRRK2 Inhibition Mass Spectrometry Assay
This assay for Leucine Rich Repeat Kinase 2 (LRRK2) inhibition is based on the direct measurement of the peptide ‘LRRKtide’ (LRRKtide: RLGRDKYKT*LRQIRQ and “*” refers to the site of phosphorylation.) and phosphorylated ‘LRRKtide’ using a high throughput RapidFire mass spectrometry assay. Inhibitors are compounds that reduce the conversion of LRRKtide to phospho-LRRKtide.
Human G2019 LRRK2 Plasmid Preparation
Primers used for PCR cloning: • pHTBV-F:SEQ ID No: 1 • LRRK2 wt-F1:SEQ ID No: 2 • LRRK2 wt-R1: SEQ ID No: 3 • LRRK2 wt-F2: SEQ ID No: 4 • LRRK2 wt-R2: SEQ ID No: 5 • LRRK2 wt-F3:SEQ ID No: 6 • pHTBV-R: SEQ ID No: 7 pHTBV1-N-Flag-hu LRRK2 was generated by PCR amplifying the full length LRRK2 sequence with N terminal Flag tag from pcDNA3.1(+)_Human_LRRK2 (NCBI Reference Sequence: NP_940980.3) with the primers described above, and cloned into pHTBV1mcs3 vector between BamHI and KpnI sites.
The G2019 full length Flag-LRRK2 coding sequence is SEQ ID No: 8.
The translated amino acid sequence for human G2019 full length N terminal flag tagged LRRK2 protein is SEQ ID No: 9.
Protein Expression & Purification a) Expression of Flag Tagged Full Length G2019 Human LRRK2
HEK293 6E cells were incubated in a 37° C. incubator with a humidified atmosphere of 5% CO2 on an orbital shaker rotating at 110 rpm. On the day of transduction, the cell viability was higher than 98% and the cell density was in the range of 1×10^6˜1.5×10^6 cells/ml. HEK293 6E cells were centrifuged at 1,000 rpm for 10 min, and then the cells were resuspended in fresh Freestyle 293 expression medium (Invitrogen: 12338) with 0.1% F-68(Invitrogen: 24040-032) but without antibiotics (G418) at density of 1×10^6 cells/ml. BacMam virus with Flag-hu LRRK2 (genotypically normal) gene was centrifuged at 40,000 g for 2 hours, then resuspended in fresh Freestyle 293 expression medium. The resuspended virus was added into the cells in at MOI of 10. The cells were incubated in a 37° C. incubator with a humidified atmosphere of 5% CO2 in air on an orbital shaker rotating at 110 rpm. Cultures were harvested at approximately 48 hours post-transduction by centrifugation at 4,000 rpm for 20 min and pellets were frozen for purification. […]
b) Purification of Flag Tagged Full Length G2019 Human LRRK2
The suspended cells were lysed by sonication on ice for 30 min (2 secs on/4 sec off, 20% amplitude), and centrifuged at 10,000 rpm for 30 minutes at 4° C. The supernatant was incubated with 1 mL per litre of cell culture of anti-Flag magnetic beads (Sigma-Aldrich: M8823) at 4° C. for 3 hours, then the beads were washed by 5 mL (5 column volume) binding buffer (50 mM Tris pH7.5@ 4 C, 500 mM NaCl, 0.5 mM EDTA, 0.1% TritonX-100, 10% glycerol, freshly add 2 mM DTT) for three times. The Flag tagged LRRK2 proteins were eluted by Elution buffer (50 mM Tris pH7.5@ 4 C, 500 mM NaCl, 0.5 mM EDTA, 0.1% TritonX-100, 10% glycerol, freshly add 2 mM DTT, 250 ug/ml Flag peptide (Sigma-Aldrich:F3290)) at 4° C. for 2 hours. Flag peptide was removed by Zeba Spin Desalting Columns, 7K MWCO (Thermo-Fisher: 89893) and the buffer of eluted LRRK2 proteins was exchanged into Storage Buffer (50 mM Tris pH7.5@4 C, 150 mM NaCl, 0.5 mM EDTA, 0.02% Triton X-100, 2 mM DTT and 50% Glycerol) using Amicon Ultra Centrifugal Filter Units (100 kD) (Merck: UFC910096). Fractions containing LRRK2 proteins were pooled, aliquoted and stored at −80° C. Protein concentration was determined by Bradford protein assay, and protein purity was analyzed by NuPAG Novex 4-12% Bis-Tris Protein Gels (Invitrogen: NP0322BOX).
Assay Protocol • 1) A 10 mM test compound was dissolved in 100% DMSO and serially diluted 1 in 4. 100 nL of this dilution series was then added to a 384 well, v bottom polypropylene plate, excluding columns 6 and 18. 100 nL of DMSO was added to columns 6 and 18 as controls wells. […]

[2] = target: T2, LRRK2 Ser935 phosphorylation in SH-SY5Y cells over-expressing recombinant full length LRRK2 (Homo sapiens, UniProt Q5S007); assay: Recombinant cellular LRRK2 AlphaScreen assay; type: cell-based; conditions: human neuroblastoma SH-SY5Y cells, BacMam full length LRRK2, 60 minutes with compound, read-out: pIC50 in the recombinant cellular LRRK2 AlphaScreen assay (converted)
T2 construct: A BacMam virus expressing full length recombinant LRRK2 was purchased from Invitrogen; host or cells: SH-SY5Y human neuroblastoma cells transduced with BacMam LRRK2 virus
In short: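 SH-SY5Y cells transduced with BacMam full-length human LRRK2 (MOI 50) for 24 h, then treated with compound (top final 10 μM) for 60 min at 37° C. Lysate pSer935 LRRK2 quantified by AlphaScreen using anti-pS935 and total-LRRK2 antibodies. Values from sigmoidal dose-response fit.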

T1 sequence (Q5S007 with tags, fused parts or gaps R50H): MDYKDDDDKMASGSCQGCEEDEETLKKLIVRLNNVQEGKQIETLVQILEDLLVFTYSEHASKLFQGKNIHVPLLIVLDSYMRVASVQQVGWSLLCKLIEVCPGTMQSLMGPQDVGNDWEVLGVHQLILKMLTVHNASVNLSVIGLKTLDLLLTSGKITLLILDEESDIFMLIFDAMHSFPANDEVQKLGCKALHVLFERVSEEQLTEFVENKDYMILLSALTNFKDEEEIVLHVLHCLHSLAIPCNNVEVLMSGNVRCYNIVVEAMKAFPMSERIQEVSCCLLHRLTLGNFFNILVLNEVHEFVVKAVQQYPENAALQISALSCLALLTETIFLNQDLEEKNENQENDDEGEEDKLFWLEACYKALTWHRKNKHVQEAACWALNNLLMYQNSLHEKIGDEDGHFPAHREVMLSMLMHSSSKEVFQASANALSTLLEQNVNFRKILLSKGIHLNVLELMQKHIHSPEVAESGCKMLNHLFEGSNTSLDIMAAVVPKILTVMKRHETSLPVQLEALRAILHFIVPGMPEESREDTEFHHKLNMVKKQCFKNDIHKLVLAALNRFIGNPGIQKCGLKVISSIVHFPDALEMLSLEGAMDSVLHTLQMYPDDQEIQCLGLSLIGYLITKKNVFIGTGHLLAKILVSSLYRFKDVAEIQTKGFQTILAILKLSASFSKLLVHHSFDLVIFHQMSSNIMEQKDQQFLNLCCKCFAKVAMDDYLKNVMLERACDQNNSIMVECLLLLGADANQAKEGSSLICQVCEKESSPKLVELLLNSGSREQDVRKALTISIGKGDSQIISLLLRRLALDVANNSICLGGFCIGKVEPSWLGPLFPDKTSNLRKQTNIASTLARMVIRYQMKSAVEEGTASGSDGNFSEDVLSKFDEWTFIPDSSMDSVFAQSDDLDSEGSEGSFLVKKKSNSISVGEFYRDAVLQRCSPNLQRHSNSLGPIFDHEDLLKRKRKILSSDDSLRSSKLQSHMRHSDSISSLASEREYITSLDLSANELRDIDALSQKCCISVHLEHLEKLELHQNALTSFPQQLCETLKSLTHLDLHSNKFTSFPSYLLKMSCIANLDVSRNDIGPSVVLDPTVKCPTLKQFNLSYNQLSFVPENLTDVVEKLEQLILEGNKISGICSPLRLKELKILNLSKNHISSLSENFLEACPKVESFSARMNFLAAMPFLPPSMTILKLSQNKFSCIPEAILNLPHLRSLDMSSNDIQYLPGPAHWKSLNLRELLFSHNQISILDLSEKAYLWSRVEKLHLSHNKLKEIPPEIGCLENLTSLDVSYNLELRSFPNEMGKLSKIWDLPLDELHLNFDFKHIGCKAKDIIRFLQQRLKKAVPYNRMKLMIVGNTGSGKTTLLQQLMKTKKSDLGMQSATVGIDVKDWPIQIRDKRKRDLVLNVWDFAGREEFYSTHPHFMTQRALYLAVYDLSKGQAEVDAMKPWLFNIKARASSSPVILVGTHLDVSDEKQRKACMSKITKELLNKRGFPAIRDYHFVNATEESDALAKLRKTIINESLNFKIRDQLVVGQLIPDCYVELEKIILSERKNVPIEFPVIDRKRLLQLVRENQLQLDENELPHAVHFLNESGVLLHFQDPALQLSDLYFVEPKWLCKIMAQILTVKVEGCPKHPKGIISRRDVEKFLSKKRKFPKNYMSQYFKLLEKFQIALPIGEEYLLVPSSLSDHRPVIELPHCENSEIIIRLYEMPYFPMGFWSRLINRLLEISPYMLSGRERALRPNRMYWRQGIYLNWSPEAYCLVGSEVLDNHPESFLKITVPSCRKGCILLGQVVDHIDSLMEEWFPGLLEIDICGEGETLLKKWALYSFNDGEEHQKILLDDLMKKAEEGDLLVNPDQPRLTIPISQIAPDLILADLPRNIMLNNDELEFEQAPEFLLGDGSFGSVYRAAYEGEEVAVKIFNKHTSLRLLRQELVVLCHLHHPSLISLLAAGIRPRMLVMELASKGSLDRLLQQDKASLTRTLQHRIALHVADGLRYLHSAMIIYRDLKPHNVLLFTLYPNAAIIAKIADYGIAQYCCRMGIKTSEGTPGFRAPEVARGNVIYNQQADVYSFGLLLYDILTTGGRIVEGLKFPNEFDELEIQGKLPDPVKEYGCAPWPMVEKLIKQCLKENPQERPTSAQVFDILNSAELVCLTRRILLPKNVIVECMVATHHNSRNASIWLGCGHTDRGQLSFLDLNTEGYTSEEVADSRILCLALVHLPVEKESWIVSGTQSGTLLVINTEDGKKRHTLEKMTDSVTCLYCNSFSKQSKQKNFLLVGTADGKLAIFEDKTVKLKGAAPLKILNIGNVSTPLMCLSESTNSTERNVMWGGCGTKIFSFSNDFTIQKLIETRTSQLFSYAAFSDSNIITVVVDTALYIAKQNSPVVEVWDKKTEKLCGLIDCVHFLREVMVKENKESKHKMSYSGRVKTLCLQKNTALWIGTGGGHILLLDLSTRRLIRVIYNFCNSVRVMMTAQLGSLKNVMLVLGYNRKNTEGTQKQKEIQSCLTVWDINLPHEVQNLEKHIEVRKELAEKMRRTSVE
T2 sequence (Q5S007 whole entry): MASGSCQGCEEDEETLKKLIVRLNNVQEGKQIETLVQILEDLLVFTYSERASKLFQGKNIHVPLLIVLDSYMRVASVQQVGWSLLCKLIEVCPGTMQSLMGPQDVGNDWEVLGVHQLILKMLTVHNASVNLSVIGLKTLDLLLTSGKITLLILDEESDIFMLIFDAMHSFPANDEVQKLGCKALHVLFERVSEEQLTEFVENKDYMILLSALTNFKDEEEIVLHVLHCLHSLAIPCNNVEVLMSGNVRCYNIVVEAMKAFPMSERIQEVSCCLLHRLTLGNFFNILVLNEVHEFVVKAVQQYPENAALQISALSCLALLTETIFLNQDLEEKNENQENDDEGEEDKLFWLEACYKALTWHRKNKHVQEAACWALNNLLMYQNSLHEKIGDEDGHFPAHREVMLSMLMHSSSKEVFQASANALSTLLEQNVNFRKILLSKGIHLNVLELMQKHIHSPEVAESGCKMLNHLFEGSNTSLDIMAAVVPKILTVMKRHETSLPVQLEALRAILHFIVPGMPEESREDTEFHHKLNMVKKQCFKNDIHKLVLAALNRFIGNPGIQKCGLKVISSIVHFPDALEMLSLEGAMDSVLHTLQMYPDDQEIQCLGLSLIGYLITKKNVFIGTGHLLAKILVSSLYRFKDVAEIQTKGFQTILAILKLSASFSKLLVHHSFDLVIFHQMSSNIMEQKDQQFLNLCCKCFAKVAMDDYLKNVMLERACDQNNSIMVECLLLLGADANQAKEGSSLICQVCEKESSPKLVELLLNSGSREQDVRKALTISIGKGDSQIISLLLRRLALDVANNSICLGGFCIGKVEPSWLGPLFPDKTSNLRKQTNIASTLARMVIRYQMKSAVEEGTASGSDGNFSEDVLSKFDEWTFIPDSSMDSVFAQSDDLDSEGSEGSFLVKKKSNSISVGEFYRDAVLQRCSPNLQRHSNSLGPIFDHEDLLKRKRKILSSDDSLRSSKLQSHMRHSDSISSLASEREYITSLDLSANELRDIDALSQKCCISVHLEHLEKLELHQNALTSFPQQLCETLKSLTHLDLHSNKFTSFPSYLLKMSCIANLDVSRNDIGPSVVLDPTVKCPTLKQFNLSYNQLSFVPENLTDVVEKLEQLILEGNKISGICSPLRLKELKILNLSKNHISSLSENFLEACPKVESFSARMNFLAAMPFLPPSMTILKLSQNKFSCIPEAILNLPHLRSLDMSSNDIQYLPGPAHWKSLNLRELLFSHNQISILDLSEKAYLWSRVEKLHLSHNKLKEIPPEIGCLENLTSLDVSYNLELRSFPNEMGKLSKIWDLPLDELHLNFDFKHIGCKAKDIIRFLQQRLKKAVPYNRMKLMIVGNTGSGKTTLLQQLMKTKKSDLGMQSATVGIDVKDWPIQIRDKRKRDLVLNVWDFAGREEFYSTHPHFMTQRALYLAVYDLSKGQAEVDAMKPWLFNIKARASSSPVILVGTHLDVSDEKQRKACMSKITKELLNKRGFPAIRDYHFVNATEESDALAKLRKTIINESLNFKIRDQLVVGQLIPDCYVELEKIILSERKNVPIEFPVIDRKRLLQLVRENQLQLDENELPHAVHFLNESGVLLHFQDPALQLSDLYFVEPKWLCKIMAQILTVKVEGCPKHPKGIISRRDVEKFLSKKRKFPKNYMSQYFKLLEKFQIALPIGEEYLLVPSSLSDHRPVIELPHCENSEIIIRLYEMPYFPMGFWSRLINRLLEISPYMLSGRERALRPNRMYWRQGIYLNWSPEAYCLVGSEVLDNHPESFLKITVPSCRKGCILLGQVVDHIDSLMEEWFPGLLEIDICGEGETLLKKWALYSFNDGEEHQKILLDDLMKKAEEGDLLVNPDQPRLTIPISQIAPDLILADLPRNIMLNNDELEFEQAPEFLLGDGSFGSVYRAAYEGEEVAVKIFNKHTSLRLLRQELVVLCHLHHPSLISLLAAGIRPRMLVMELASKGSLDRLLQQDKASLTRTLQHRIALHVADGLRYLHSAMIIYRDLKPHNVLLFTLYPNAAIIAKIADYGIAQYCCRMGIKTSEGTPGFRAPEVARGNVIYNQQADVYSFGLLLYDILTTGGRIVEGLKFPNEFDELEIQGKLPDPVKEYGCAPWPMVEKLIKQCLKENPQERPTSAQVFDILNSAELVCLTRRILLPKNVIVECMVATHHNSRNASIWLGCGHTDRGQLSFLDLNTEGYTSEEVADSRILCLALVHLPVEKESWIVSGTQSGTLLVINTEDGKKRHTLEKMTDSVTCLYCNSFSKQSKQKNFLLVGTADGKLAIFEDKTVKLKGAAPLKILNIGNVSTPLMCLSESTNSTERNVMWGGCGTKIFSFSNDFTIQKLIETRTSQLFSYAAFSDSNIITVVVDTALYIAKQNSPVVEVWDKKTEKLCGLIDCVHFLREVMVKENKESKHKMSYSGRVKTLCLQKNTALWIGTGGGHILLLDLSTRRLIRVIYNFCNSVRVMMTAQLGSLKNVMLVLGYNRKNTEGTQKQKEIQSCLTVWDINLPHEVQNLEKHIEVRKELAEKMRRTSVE

| Structure (SMILES) | IC50 [1] [nM] | IC50 [2] [nM] |
| --- | --- | --- |
| Cc1nc(N2CC3(CO)CC2CO3)cc(-n2ncc3cc(C)c(C4CCN(C5CCOC5)CC4)cc32)n1 (single isomer, unassigned) [Example E152, (5-(2-methyl-6-(5-methyl-6-(1-(tetrahydrofuran-3-yl)piperidin-4-yl)-1H-indazol-1-yl)pyrimidin-4-yl)-2-oxa-5-azabicyclo[2.2.1]heptan-1-yl)methanol] | ≤ 100 | – |
| Cc1nc(N2CC3(CO)CC2CO3)cc(-n2ncc3cc(C)c(C4CCN(C5COC5)CC4)cc32)n1 (stereo not drawn) [Example E166, (5-(2-methyl-6-(5-methyl-6-(1-(oxetan-3-yl)piperidin-4-yl)-1H-indazol-1-yl)pyrimid-in-4-yl)-2-oxa-5-azabicyclo[2.2.1]heptan-1-yl)methanol] | ≤ 100 | – |
| COC(=O)CCN1CCC(c2cc3c(cnn3-c3cc(N4C[C@@H]5C[C@H]4CO5)nc(C)n3)cc2C)CC1 [Example E163, Methyl 3-(4-(1-(6-((1S,4S)-2-oxa-5-azabicyclo[2.2.1]heptan-5-yl)-2-methylpyrimidin-4-yl)-5-methyl-1H-indazol-6-yl)piperidin-1-yl)propanoate] | ≤ 100 | – |
| Cc1nc(N2C[C@H]3C[C@@H]2CO3)cc(-n2ncc3cc(C)c(C4CCN(CCC(=O)O)CC4F)cc32)n1 (single isomer, unassigned) [Example E154] | ≤ 100 | – |
| Cc1nc(N2C[C@@H]3C[C@H]2CO3)cc(-n2ncc3cc(C)c(C4CCN(CCC(=O)O)CC4F)cc32)n1 (single isomer, unassigned) [Example E156] | ≤ 100 | – |
| COc1nc(N2CC3CC2CO3)cc(-n2ncc3cc(C)c(C4CCN(C5COC5)CC4O)cc32)n1 (single isomer, unassigned) [Example E133] | ≤ 100 | – |
| Cc1nc(N2C3CCC2COC3)cc(-n2ncc3cc(C)c(C4CCN(C5COC5)CC4)cc32)n1 [Example E45, 8-(2-methyl-6-(5-methyl-6-(1-(oxetan-3-yl)piperidin-4-yl)-1H-indazol-1-yl)pyrimidin-4-yl)-3-oxa-8-azabicyclo[3.2.1]octane] | – | ≤ 1000 |
| Cc1nc(N2CC3CC2CC3C(=O)O)cc(-n2ncc3cc(C)c(C4CCC(C)(O)CC4)cc32)n1 (single isomer, unassigned) [Example E75, 2-(6-(6-(cis-4-hydroxy-4-methylcyclohexyl)-5-methyl-1H-indazol-1-yl)-2-methylpyrimidin-4-yl)-2-azabicyclo[2.2.1]heptane-5-carboxylic Acid] | – | ≤ 10 |
| COc1nc(N2C[C@@H]3C[C@H]2CO3)cc(-n2ncc3cc(Cl)c(C4CCN(C5CCOC5)CC4)cc32)n1 (single isomer, unassigned) [Example E69] | – | ≤ 1000 |

Next, values leading:

| IC50 [1] [nM] | IC50 [2] [nM] | Structure (SMILES) |
| --- | --- | --- |
| ≤ 100 | – | Cc1nc(N2C[C@H]3C[C@@H]2CO3)cc(-n2ncc3cc(C)c(C4CCN(CCS(C)(=O)=O)CC4)cc32)n1 [Example E170, (1R,4R)-5-(2-methyl-6-(5-methyl-6-(1-(2-(methylsulfonyl)ethyl)piperidin-4-yl)-1H-indazol-1-yl)pyrimidin-4-yl)-2-oxa-5-azabicyclo[2.2.1]heptane] |
| ≤ 100 | – | Cc1nc(N2C[C@@H]3C[C@H]2CO3)cc(-n2ncc3cc(C)c(C4CCN(C5CCOC5)CC4F)cc32)n1 (single isomer, unassigned) [Example E150] |
| ≤ 100 | – | Cc1nc(N2C[C@H]3C[C@@H]2CO3)cc(-n2ncc3cc(C)c(C4CCN(C5COCC5O)CC4)cc32)n1 (single isomer, unassigned) [Example E171] |
| ≤ 100 | – | Cc1nc(N2C[C@@]3(CO)C[C@@H]2CO3)cc(-n2ncc3cc(C)c(C4CCOCC4)cc32)n1 [Example E173, ((1R,4R)-5-(2-methyl-6-(5-methyl-6-(tetrahydro-2H-pyran-4-yl)-1H-indazol-1-yl)pyrimidin-4-yl)-2-oxa-5-azabicyclo[2.2.1]heptan-1-yl)methanol] |
| ≤ 100 | – | Cc1nc(N2C[C@@]3(CO)C[C@@H]2CO3)cc(-n2ncc3cc(C)c(C4CCN([C@H]5CCOC5)CC4)cc32)n1 [Example E142, ((1R,4R)-5-(2-methyl-6-(5-methyl-6-(1-((S)-tetrahydrofuran-3-yl)piperidin-4-yl)-1H-indazol-1-yl)pyrimidin-4-yl)-2-oxa-5-azabicyclo[2.2.1]heptan-1-yl)methanol] |
| – | ≤ 1000 | Cc1nc(N2C[C@H]3C[C@@H]2CO3)cc(-n2ncc3cc(C)c(C4CCN(C5COC5)CC4C)cc32)n1 (stereo partly drawn) [Example E55, (1R,4R)-5-(2-methyl-6-(5-methyl-6-(3-methyl-1-(oxetan-3-yl)piperidin-4-yl)-1H-indazol-1-yl)pyrimidin-4-yl)-2-oxa-5-azabicyclo[2.2.1]heptane] |
| – | ≤ 1000 | COc1nc(N2C[C@H]3C[C@@H]2CO3)cc(-n2ncc3cc(C)c(C4CCN(CCF)CC4)cc32)n1 [Example E37, (1R,4R)-5-(6-(6-(1-(2-fluoroethyl)piperidin-4-yl)-5-methyl-1H-indazol-1-yl)-2-methoxypyrimidin-4-yl)-2-oxa-5-azabicyclo[2.2.1]heptane] |
| – | ≤ 1000 | COc1nc(N2C[C@@H]3C[C@H]2CO3)cc(-n2ncc3cc(C)c(C4CCN(CCC(=O)O)CC4F)cc32)n1 (single isomer, unassigned) [Example E161] |
| – | ≤ 1000 | COc1nc(N2C[C@@H]3C[C@H]2CO3)cc(-n2ncc3ccc(OC4(C)CC4)cc32)n1 [Example E4, (1S,4S)-5-(2-methoxy-6-(6-(1-methylcyclopropoxy)-1H-indazol-1-yl)pyrimidin-4-yl)-2-oxa-5-azabicyclo[2.2.1]heptane] |
| – | ≤ 1000 | Cc1nc(N2C[C@@H]3C[C@H]2CO3)cc(-n2ncc3cc(C)c(C4CCN(C5CCOC5)CC4F)cc32)n1 (single isomer, unassigned) [Example E151] |
| ≤ 100 | – | Cc1nc(N2C[C@H]3C[C@@H]2CO3)cc(-n2ncc3cc(C)c(C4CCN(C5CCOC5)CC4F)cc32)n1 (single isomer, unassigned) [Example E148] |
| – | ≤ 1000 | Cc1nc(N2C[C@H]3C[C@@H]2CO3)cc(-n2ncc3cc(C)c(C4CCN(C5COCC5O)CC4)cc32)n1 (single isomer, unassigned) [Example E172] |
